Where two headings read alike, the source gives them in different places. Marks after values point to notes of the source that are not given here.
Experiments:
[1] = design: method as in PMID 24628035; conditions: cited from earlier work; for t ½ (terminal half‐life): arithmetic mean (CV%)
[2] = disposition of 14C-obicetrapib after a single oral dose of 20 mg/kg in the cynomolgus monkey; format: in vivo; conditions: urine and feces samples
Protocol: Figure 1 illustrates the metabolism of obicetrapib (TA‐8995) in the cynomolgus monkey. A study was conducted to examine the disposition of ^14C‐obicetrapib following oral administration in the cynomolgus monkey (n = 3 males) at a dose level of 20 mg/kg. […] The monkeys each received a single oral dose of ^14C‐obicetrapib by gavage at a target dose level of 20 mg/kg and a nominal dose volume of 5 mL/kg. […] After the final blood collection, radioactivity was measured in the blood and plasma by liquid scintillation counting. The profile of M1 in selected samples of plasma was determined by high‐performance liquid chromatography (HPLC) (following extraction of the matrix, where relevant) and selected M1 were identified by liquid chromatography mass spectrometry. In plasma, unchanged obicetrapib and a M1 were the principal radioactive components and represented at least 66% of the chromatographic radioactivity in any single profile.

[3] = TA‐8995‐203 Phase II trial in Japanese participants, plasma concentrations of obicetrapib; format: in vivo, humans; conditions: for Mean (SD) Plasma Level / concentration at 8 weeks: Week 8 (EOT), Japanese participants; for % Change in Plasma Level: Week 8 to Week 12, mean (SD); for concentration at 8 weeks / concentration at 12 weeks: both sexes, human, plasma, oral, read-out: Mean (SD) Plasma Level; for concentration at 12 weeks: Week 12, four weeks after the end of treatment
Protocol: The PK parameters and the effect of food on the bioavailability of obicetrapib in humans have been examined in both Phase I[9] (TA‐8995‐09 CSR, NewAmsterdam Pharma) and Phase II trials.[10], [11], [12], [13] The trials were performed in accordance with the Declaration of Helsinki, Good Clinical Practice Guidelines, and applicable regulatory requirements. Approval was obtained from the relevant ethical review boards for each site. All volunteers provided written informed consent prior to participation. PK parameters were determined using WinNonlin software, version 4.1 or higher (Pharsight/Certara Corporation, USA). Concentrations of obicetrapib were summarized for each treatment group using descriptive statistics.
This Phase II trial (NCT05421078) was designed to evaluate the efficacy, safety, and tolerability of obicetrapib as an adjunct to stable statin therapy in Japanese participants with LDL‐C >70 mg/dL, or non‐HDL‐C >100 mg/dL, and triglyceride levels <400 mg/dL.[13] Eligible participants were receiving either atorvastatin 10 or 20 mg or rosuvastatin 5 or 10 mg for at least 8 weeks prior to screening and continued statin therapy throughout the treatment period. One hundred two participants (mean age: 64.8 years; 71.6% male; mean BMI: 25.6 kg/m^2) were enrolled at nine clinical research sites in Japan and randomized to one of four treatment groups in a 1:1:1:1 ratio: 1) placebo; 2) 2.5 mg obicetrapib; 3) 5 mg obicetrapib; or 4) 10 mg obicetrapib.
The participants were instructed to take their assigned treatment orally once daily at approximately the same time each morning for the 8‐week treatment period. After randomization, participants returned to the clinical research site during Weeks 2, 4, and 8 (end of treatment) for PK assessments. Participants also completed a follow‐up visit 4 weeks after the end of treatment (Week 12) for a final PK assessment. All of the participants who were randomized completed the treatment and were included in the primary analysis. The PK population included all randomized participants in the mITT population assigned to the three obicetrapib dose groups who had sufficient blood samples collected for valid estimation of PK parameters; 76 (100%) participants in the PK population were included in the 4‐week post‐end of treatment PK analysis (TA‐8995‐203 CSR, NewAmsterdam Pharma).

[4] = single dose 5 mg, after a standard breakfast, geometric mean (CV%)
[5] = single dose 10 mg, after a standard breakfast, geometric mean (CV%)
[6] = Obicetrapib 2.5 mg + stable statin therapy
[7] = Obicetrapib 5 mg + stable statin therapy
[8] = Obicetrapib 10 mg + stable statin therapy

Compound: CCOC(=O)N1c2ccc(C(F)(F)F)cc2C(N(Cc2cc(C(F)(F)F)cc(C(F)(F)F)c2)c2ncc(OCCCC(=O)O)cn2)CC1CC (stereo not shown) [Obicetrapib]
- t ½ (terminal half‐life) ([1]; multiple daily doses 5 mg, after the last dose): 148 (30%) h
- t max ([1]; multiple daily doses 5 mg, after the last dose, median (minimum, maximum)): 4 (3, 8) h
- C max ([1]; multiple daily doses 5 mg, steady state, after the last dose, geometric mean (CV%)): 436 (18%) ng/mL
- AUC (0, τ, ss) ([1]; multiple daily doses 5 mg, steady state, τ 24 h, geometric mean (CV%)): 7606 (20%) ^f ng·h/mL
- Rac (accumulation ratio, AUC(0,τ,ss)/AUC(0–24 h)) ([1]; multiple daily doses 5 mg): 4.3 (1.1)
- Rac (accumulation ratio, AUC(0,τ,ss)/AUC(0–24 h)) ([1]; multiple daily doses 5 mg, listed as obicetrapib): 4.3
- t ½ (terminal half‐life) ([1]; multiple daily doses 10 mg, after the last dose): 131 (19%) h
- t max ([1]; multiple daily doses 10 mg, after the last dose, median (minimum, maximum)): 6 (4, 8) h
- C max ([1]; multiple daily doses 10 mg, steady state, after the last dose, geometric mean (CV%)): 692 (23%) ng/mL
- Rac (accumulation ratio, AUC(0,τ,ss)/AUC(0–24 h)) ([1]; multiple daily doses 10 mg): 3.7 (0.8)
- Rac (accumulation ratio, AUC(0,τ,ss)/AUC(0–24 h)) ([1]; multiple daily doses 10 mg, listed as obicetrapib): 3.7
- t ½ (terminal half‐life) ([1]; multiple daily doses 25 mg, after the last dose): 121 (23%) h
- t max ([1]; multiple daily doses 25 mg, after the last dose, median (minimum, maximum)): 4 (2, 6) h
- C max ([1]; multiple daily doses 25 mg, steady state, after the last dose, geometric mean (CV%)): 1398 (18%) ng/mL
- Rac (accumulation ratio, AUC(0,τ,ss)/AUC(0–24 h)) ([1]; multiple daily doses 25 mg): 2.1 (0.3)
- Rac (accumulation ratio, AUC(0,τ,ss)/AUC(0–24 h)) ([1]; multiple daily doses 25 mg, listed as obicetrapib): 2.1
- t max ([1]; multiple daily doses, all doses except 10 mg): 4 h
- obicetrapib in urine ([1]; multiple doses, any participant): not detected
- AUC (0–24 h) [1, 4]: 1796 (14%) ng·h/mL
- C max [1, 4]: 116 (13%) ng/mL
- t max ([1]; single dose 5 mg, after a standard breakfast, median (minimum, maximum)): 6 (4, 8) h
- AUC (0–24 h) [1, 5]: 3471 (18%) ng·h/mL
- C max [1, 5]: 245 (14%) ng/mL
- t max ([1]; single dose 10 mg, after a standard breakfast, median (minimum, maximum)): 6 (4, 8) h
- C max ([1]; single dose 25 mg, after a standard breakfast, geometric mean (CV%)): 750 (19%) ng/mL
- t max ([1]; single dose 25 mg, after a standard breakfast, median (minimum, maximum)): 6 (3, 8) h
- t max ([1]; single dose regardless of the strength of the dose (1–25 mg)): 6 h
- time in which plasma levels were approaching steady state ([1]; visual inspection of trough concentrations, multiple once daily doses): within one to two weeks
- metabolism of obicetrapib [2]: extensive
- Mean (SD) Plasma Level [3, 6]: 194.5 (42.7) ng/mL
- % Change in Plasma Level [3, 6]: −93.4 (2.6) %
- % Change in Plasma Level ([3]; Obicetrapib 2.5 mg + stable statin therapy, listed as obicetrapib): −93.4%
- % Change in Plasma Level [3, 7]: −93.5 (3.4) %
- % Change in Plasma Level ([3]; Obicetrapib 5 mg + stable statin therapy, listed as obicetrapib): −93.5%
- Mean (SD) Plasma Level [3, 8]: 506.3 (237.5) ng/mL
- % Change in Plasma Level [3, 8]: −95.2 (2.3) %
- % Change in Plasma Level ([3]; Obicetrapib 10 mg + stable statin therapy, listed as obicetrapib): −95.2%
- concentration at 8 weeks ([3]; 2.5 mg, Obicetrapib 2.5 mg + stable statin therapy): 194 ng/mL
- concentration at 8 weeks ([3]; 10 mg, Obicetrapib 10 mg + stable statin therapy): 506 ng/mL
- concentration at 12 weeks [3, 6]: 13.2 ng/mL
- concentration at 8 weeks [3, 7]: 362 ng/mL
- concentration at 12 weeks [3, 7]: 24.6 ng/mL
- concentration at 12 weeks [3, 8]: 27.6 ng/mL

From PMC11489133, “Obicetrapib exhibits favorable physiochemical and pharmacokinetic properties compared to previous cholesteryl ester transfer protein inhibitors: An integrated summary of results from non‐human primate studies and clinical trials” (Pharmacology Research & Perspectives, 2024)
